In patent publication US20120083522A1, “MODULATION OF INFLAMMATORY RESPONSES BY FACTOR XI” (Isis Pharmaceuitcals, inc., priority 2009, published 2012):
In the oligonucleotide strings, read from the 5' end, every base follows the letter of its sugar. An asterisk marks phosphorothioate; unmarked linkages are phosphodiester. Other units and linkages are bracketed, terminal groups are in braces. A string of capitals states the bases alone. e = 2'-O-(2-methoxyethyl) (MOE); [5mC] = 5-methylcytosine; d = 2'-deoxy (DNA)

Columns and labels:
human Factor XI mRNA = assay: Antisense inhibition in HepG2 cells by microwalk gapmers, 8,000 nM, electroporation (Example 14); assay type: cell-based; conditions: HepG2 cells, 8,000 nM
Description: These microwalk gapmers were tested in vitro. Cultured HepG2 cells at a density of 20,000 cells per well were transfected using electroporation with 8,000 nM antisense oligonucleotide. After a treatment period of approximately 24 hours, RNA was isolated from the cells and Factor XI mRNA levels were measured by quantitative real-time PCR. Factor XI mRNA levels were adjusted according to total RNA content, as measured by RIBOGREEN. Results are presented as percent inhibition of Factor XI, relative to untreated control cells.
The chimeric antisense oligonucleotides in Table 51 were designed as 5-10-5 MOE, 5-8-5 and 6-8-6 MOE gapmers. The first two listed gapmers in Table 51 are the original gapmers (ISIS 416850 and ISIS 416858) from which ISIS 445493-445543 were designed via microwalk, and are designated by an asterisk. The 5-10-5 gapmers are 20 nucleotides in length, wherein the central gap segment is comprised of ten 2′-deoxynucleotides and is flanked on both sides (in the 5′ and 3′ directions) by wings comprising five nucleotides each. The 5-8-5 gapmers are 18 nucleotides in length, wherein the central gap segment is comprised of eight 2′-deoxynucleotides and is flanked on both sides (in the 5′ and 3′ directions) by wings comprising five nucleotides each. The 6-8-6 gapmers are 20 nucleotides in length, wherein the central gap segment is comprised of eight 2′-deoxynucleotides and is flanked on both sides (in the 5′ and 3′ directions) by wings comprising six nucleotides each. For each of the motifs (5-10-5, 5-8-5 and 6-8-6), each nucleotide in the 5′ wing segment and each nucleotide in the 3′ wing segment has a 2′-MOE modification. The internucleoside linkages throughout each gapmer are phosphorothioate (P═S) linkages. All cytidine residues throughout each gapmer are 5-methylcytidines. “Human Target start site” indicates the 5′-most nucleotide to which the gapmer is targeted in the human sequence. “Human Target stop site” indicates the 3′-most nucleotide to which the gapmer is targeted in the human sequence. Each gapmer listed in Table 51 is targeted to SEQ ID NO: 1 (GENBANK Accession No. NM_000128.3). Each gapmer is Table 51 is also fully cross-reactive with the rhesus monkey Factor XI gene sequence, designated herein as SEQ ID NO: 274 (exons 1-15 GENBANK Accession No. NW—001118167.1). ‘Rhesus monkey start site’ indicates the 5′-most nucleotide to which the gapmer is targeted in the rhesus monkey sequence. ‘Rhesus monkey stop site’ indicates the 3′-most nucleotide to which the gapmer is targeted to the rhesus monkey sequence.

Factor XI protein = assay: Cynomolgus monkeys: plasma Factor XI protein ELISA (Example 29); assay type: in vivo; conditions: escalating doses 5, 10, 25 mg/kg s.c.
Description: (§1) Groups, each consisting of two male and three female monkeys, were injected subcutaneously with ISIS 416838, ISIS 416850, ISIS 416858, ISIS 416864, or ISIS 417002 in escalating doses. Antisense oligonucleotide was administered to the monkeys at 5 mg/kg three times per a week for week 1; 5 mg/kg twice per week for weeks 2 and 3; 10 mg/kg three times per week for week 4; 10 mg/kg twice per week for weeks 5 and 6; 25 mg/kg three times per week for week 7; and 25 mg/kg twice per week for weeks 8, 9, 10, 11, and 12. One control group, consisting of two male and three female monkeys, was injected subcutaneously with PBS according to the same dosing regimen. An additional experimental group, consisting of two male and three female monkeys, was injected subcutaneously with ISIS 416850 in a chronic, lower dose regimen. Antisense oligonucleotide was administered to the monkeys at 5 mg/kg three times per week for week 1; 5 mg/kg twice per week for week 2 and 3; 10 mg/kg three times per week for week 4; and 10 mg/kg twice per week for weeks 5 to 12. Body weights were measured weekly. Blood samples were collected 14 days and 5 days before the start of treatment and subsequently once per week for Factor XI protein activity analysis in plasma and measurement of various hematologic factors. On day 85, the monkeys were euthanized by exsanguination while under deep anesthesia, and organs harvested for further analysis.
Plasma samples from all monkey groups taken on different days were analyzed by a sandwich-style ELISA assay (Affinity Biologicals Inc.) using an affinity-purified polyclonal anti-Factor XI antibody as the capture antibody and a peroxidase-conjugated polyclonal anti-Factor XI antibody as the detecting antibody. Monkey plasma was diluted 1:50 for the assay. Peroxidase activity was expressed by incubation with the substrate o-phenylenediamine. The color produced was quantified using a microplate reader at 490 nm and was considered to be proportional to the concentration of Factor XI in the samples.
The results are presented in Table 122, expressed as percentage reduction relative to that of the PBS control.

[1] = Cynomolgus monkeys: body and organ weights (Example 29); assay type: in vivo; conditions: for Body weight: escalating doses 5, 10, 25 mg/kg s.c.
Description: as §1
Body weights were taken once weekly throughout the dosing regimen. […] Organ weights were taken after the animals were euthanized and livers, kidneys and spleens were harvested and weighed. […] The ISIS oligonucleotide, ISIS 416850, given with the chronic dose regimen is distinguished from the other oligonucleotides with an asterisk (*).

[2] = Cynomolgus monkeys: hematology assays (Example 29); assay type: in vivo
Description: as §1
The ISIS oligonucleotide, ISIS 416850, given with the chronic dose regimen is distinguished from the other oligonucleotides with an asterisk (*).

## 445493 (antisense eA*e[5mC]*eA*eG*eT*eT*dT*d[5mC]*dT*dG*dG*d[5mC]*dA*dG*eG*e[5mC]*e[5mC]*eT*e[5mC]*eG) [compound 445493]
Human Factor XI mRNA
  Percent inhibition of human Factor XI mRNA levels: 69%

## 445494 (antisense CACAGTTTCTGGCAGGCCTC; 6-8-6 gapmer chemistry, chemistry not fully specified) [compound 445494]
Human Factor XI mRNA
  Percent inhibition of human Factor XI mRNA levels: 85%

## 445495 (antisense GCACAGTTTCTGGCAGGCCT; 6-8-6 gapmer chemistry, chemistry not fully specified) [compound 445495]
Human Factor XI mRNA
  Percent inhibition of human Factor XI mRNA levels: 89%

## 445496 (antisense TGCACAGTTTCTGGCAGGCC; 6-8-6 gapmer chemistry, chemistry not fully specified) [compound 445496]
Human Factor XI mRNA
  Percent inhibition of human Factor XI mRNA levels: 87%

## 445497 (antisense GTGCACAGTTTCTGGCAGGC; 6-8-6 gapmer chemistry, chemistry not fully specified) [compound 445497]
Human Factor XI mRNA
  Percent inhibition of human Factor XI mRNA levels: 81%

## 445499 (antisense TGGTGCACAGTTTCTGGCAG; 6-8-6 gapmer chemistry, chemistry not fully specified) [compound 445499]
Human Factor XI mRNA
  Percent inhibition of human Factor XI mRNA levels: 75%

## 445500 (antisense TTGGTGCACAGTTTCTGGCA; 6-8-6 gapmer chemistry, chemistry not fully specified) [compound 445500]
Human Factor XI mRNA
  Percent inhibition of human Factor XI mRNA levels: 81%

## 445501 (antisense ATTGGTGCACAGTTTCTGGC; 6-8-6 gapmer chemistry, chemistry not fully specified) [compound 445501]
Human Factor XI mRNA
  Percent inhibition of human Factor XI mRNA levels: 83%

## 445502 (antisense e[5mC]*eA*eT*eT*eG*eG*dT*dG*d[5mC]*dA*d[5mC]*dA*dG*dT*eT*eT*e[5mC]*eT*eG*eG) [compound 445502]
Human Factor XI mRNA
  Percent inhibition of human Factor XI mRNA levels: 83%

## 445506 (antisense eA*e[5mC]*eG*eG*e[5mC]*eA*dT*dT*dG*dG*dT*dG*d[5mC]*dA*e[5mC]*eA*eG*eT*eT*eT) [compound 445506]
Human Factor XI mRNA
  Percent inhibition of human Factor XI mRNA levels: 86%

## 445507 (antisense eG*eA*e[5mC]*eG*eG*e[5mC]*dA*dT*dT*dG*dG*dT*dG*d[5mC]*eA*e[5mC]*eA*eG*eT*eT) [compound 445507]
Human Factor XI mRNA
  Percent inhibition of human Factor XI mRNA levels: 85%

## 445508 (antisense eG*eG*eA*e[5mC]*eG*eG*d[5mC]*dA*dT*dT*dG*dG*dT*dG*e[5mC]*eA*e[5mC]*eA*eG*eT) [compound 445508]
Human Factor XI mRNA
  Percent inhibition of human Factor XI mRNA levels: 81%

## 445509 (antisense e[5mC]*eG*eG*eA*e[5mC]*eG*dG*d[5mC]*dA*dT*dT*dG*dG*dT*eG*e[5mC]*eA*e[5mC]*eA*eG) [compound 445509]
Human Factor XI mRNA
  Percent inhibition of human Factor XI mRNA levels: 84%

## 445510 (antisense eG*e[5mC]*eG*eG*eA*e[5mC]*dG*dG*d[5mC]*dA*dT*dT*dG*dG*eT*eG*e[5mC]*eA*e[5mC]*eA) [compound 445510]
Human Factor XI mRNA
  Percent inhibition of human Factor XI mRNA levels: 88%

## 445511 (antisense eA*eG*e[5mC]*eG*eG*eA*d[5mC]*dG*dG*d[5mC]*dA*dT*dT*dG*eG*eT*eG*e[5mC]*eA*e[5mC]) [compound 445511]
Human Factor XI mRNA
  Percent inhibition of human Factor XI mRNA levels: 77%

## 445512 (antisense e[5mC]*eA*eG*e[5mC]*eG*eG*dA*d[5mC]*dG*dG*d[5mC]*dA*dT*dT*eG*eG*eT*eG*e[5mC]*eA) [compound 445512]
Human Factor XI mRNA
  Percent inhibition of human Factor XI mRNA levels: 79%

## 445513 (antisense eG*e[5mC]*eA*eG*e[5mC]*eG*dG*dA*d[5mC]*dG*dG*d[5mC]*dA*dT*eT*eG*eG*eT*eG*e[5mC]) [compound 445513]
Human Factor XI mRNA
  Percent inhibition of human Factor XI mRNA levels: 85%

## 445514 (antisense eG*eG*e[5mC]*eA*eG*e[5mC]*dG*dG*dA*d[5mC]*dG*dG*d[5mC]*dA*eT*eT*eG*eG*eT*eG) [compound 445514]
Human Factor XI mRNA
  Percent inhibition of human Factor XI mRNA levels: 81%

## 445515 (antisense eT*eG*eG*e[5mC]*eA*eG*d[5mC]*dG*dG*dA*d[5mC]*dG*dG*d[5mC]*eA*eT*eT*eG*eG*eT) [compound 445515]
Human Factor XI mRNA
  Percent inhibition of human Factor XI mRNA levels: 75%

## ISIS 417002: gapmer of Table 8 (antisense eG*eG*dT*dG*d[5mC]*dA*d[5mC]*dA*dG*dT*dT*dT*d[5mC]*dT*dG*eG*e[5mC]*eA*eG*eG)
Factor XI protein; day 8
  Inhibition of Factor XI protein relative to the PBS control: 0%
Factor XI protein; day 15
  Inhibition of Factor XI protein relative to the PBS control: 4%
Factor XI protein; day 22
  Inhibition of Factor XI protein relative to the PBS control: 2%
Factor XI protein; day 29
  Inhibition of Factor XI protein relative to the PBS control: 8%
Factor XI protein; day 36
  Inhibition of Factor XI protein relative to the PBS control: 8%
Factor XI protein; day 43
  Inhibition of Factor XI protein relative to the PBS control: 9%
Factor XI protein; day 50
  Inhibition of Factor XI protein relative to the PBS control: 13%
Factor XI protein; day 57
  Inhibition of Factor XI protein relative to the PBS control: 24%
Factor XI protein; day 64
  Inhibition of Factor XI protein relative to the PBS control: 26%
Factor XI protein; day 71
  Inhibition of Factor XI protein relative to the PBS control: 30%
Factor XI protein; day 78
  Inhibition of Factor XI protein relative to the PBS control: 22%
Factor XI protein; day 85
  Inhibition of Factor XI protein relative to the PBS control: 23%
Factor XI protein; day −5 (before treatment)
  Inhibition of Factor XI protein relative to the PBS control: 0%
Factor XI protein; day −14 (before treatment)
  Inhibition of Factor XI protein relative to the PBS control: 0%
[1]; after euthanasia
  Kidney weight: 15 g
  Liver weight: 51 g
  Spleen weight: 5 g
[1]; day 1
  Body weight: 2640 g
[1]; day 8
  Body weight: 2523 g
[1]; day 15
  Body weight: 2571 g
[1]; day 22
  Body weight: 2617 g
[1]; day 29
  Body weight: 2622 g
[1]; day 36
  Body weight: 2631 g
[1]; day 43
  Body weight: 2630 g
[1]; day 50
  Body weight: 2652 g
[1]; day 57
  Body weight: 2654 g
[1]; day 64
  Body weight: 2598 g
[1]; day 71
  Body weight: 2727 g
[1]; day 78
  Body weight: 2570 g
[2]; day 8
  platelet count: 435000 µL⁻¹
[2]; day 15
  platelet count: 410000 µL⁻¹
[2]; day 22
  platelet count: 377000 µL⁻¹
[2]; day 29
  platelet count: 410000 µL⁻¹
[2]; day 36
  platelet count: 415000 µL⁻¹
[2]; day 43
  platelet count: 393000 µL⁻¹
[2]; day 50
  platelet count: 389000 µL⁻¹
[2]; day 57
  platelet count: 403000 µL⁻¹
[2]; day 64
  platelet count: 436000 µL⁻¹
[2]; day 71
  platelet count: 490000 µL⁻¹
[2]; day 78
  platelet count: 432000 µL⁻¹
[2]; day 85
  platelet count: 418000 µL⁻¹
[2]; day −5
  platelet count: 466000 µL⁻¹
[2]; day −14
  platelet count: 442000 µL⁻¹
